Here are results for 22 molecules from US20190194148A1, “TETRAZOLE-CONTAINING 1,2-CYCLOPROPANE-CARBOXAMIDES” (Bayer Pharma Aktiengesellschaft, priority 2017, published 2019).

This assay deals with T1, human B1 receptor (Homo sapiens, UniProt P46663).
T1 construct: host or cells: CHO-K1
T1 sequence (P46663 1-353): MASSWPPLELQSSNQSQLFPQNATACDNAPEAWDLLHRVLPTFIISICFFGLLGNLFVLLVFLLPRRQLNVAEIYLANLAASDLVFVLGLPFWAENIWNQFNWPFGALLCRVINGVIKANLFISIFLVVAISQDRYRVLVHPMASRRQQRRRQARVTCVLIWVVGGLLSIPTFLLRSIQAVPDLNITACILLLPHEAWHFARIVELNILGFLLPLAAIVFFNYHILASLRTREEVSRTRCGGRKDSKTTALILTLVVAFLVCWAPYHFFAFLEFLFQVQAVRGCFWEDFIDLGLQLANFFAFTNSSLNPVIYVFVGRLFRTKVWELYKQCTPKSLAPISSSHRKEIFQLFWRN
The assay can be described thus: Calcium flux assay (FLIPR) with recombinant CHO-K1 cells expressing human B1 receptor. Type of assay: cell-based. How it is done: The potency to inhibit the Bradykinin B1 receptors was determined for the example compounds of this invention in a cell-based fluorescent calcium-mobilisation assay. The assay measures the ability of example compounds to inhibit Bradykinin B1 receptor agonist-induced increase of intracellular free Ca^2+ in the cell line expressing B1 receptor. Specifically, calcium indicator-loaded cells are pre-incubated in the absence or presence of different concentrations of example compounds followed by the stimulation with a selective B1 receptor agonist peptide. The change of the intracellular Ca^2+ concentration is monitored with a fluorescent plate reader FLIPR (Molecular Devices).
Calcium Flux Assays (FLIPR) with Cells Expressing Bradykinin B1 Receptor Calcium Flux Assay (FLIPR) with Recombinant Cells for Bradykinin B1 Receptor Antagonist, Either in the Presence (hB1 IC50) or Absence (hB1 free IC50) of 0.1% Bovine Serum Albumin (BSA) in Assay Buffer
CHO-K1 cell line expressing human B1 receptor was purchased from Euroscreen (Gosselies, Belgium, with reference name hB1-D1). The cells were grown in Nutrient Mixture Ham's F12 (Sigma) containing 10% Foetal bovine serum (Sigma) and 400 μg/mL G418 (Sigma), 5 μg/mL puromycin (Sigma).
For the calcium flux assay, 80% confluent cells were detached from the culture vessels with Versene (Gibco), and seeded into 384-well plates (Cell binding Surface; Corning, N.Y.; #3683) at a density of 15,000 cells per well. Cells were seeded in a volume of 50 μL in medium without antibiotics and incubated overnight in a humidified atmosphere with 5% CO2 at 37° C. […] The calcium indicator loaded cells were incubated at 37° C. for 2 hrs. Extracellular dye was then removed and each well was filled with 45 μL of assay buffer. Cell plates were kept in dark until used. Example compounds were assayed at 8 concentrations in triplicate. Serial 10-fold dilutions in 100% DMSO were made at a 100-times higher concentration than the final concentration, and then diluted 1:10 in assay buffer. 5 μL of each diluted compound was added to the well of cell plates (yielding final concentration with 1% DMSO), and incubated for 30 min at 28° C. before the addition of B1 receptor agonist on the FLIPR instrument.
Agonist plates contained the agonist Lys-(Des-Arg)-Bradykinin (Bachem, Brackley) at 3.5×EC90 in assay buffer with 1% DMSO. The addition of agonist 20 μl per well to the assay plate was carried out on the FLIPR instrument while continuously monitoring Ca^2+-dependent fluorescence at 538 nm. A peptide antagonist Lys-(Des-Arg-Leu)-Bradykinin (Bachem, Brackley) at 20 μM was used to determine the full inhibition as control.
Peak fluorescence was used to determine the response to agonist obtained at each concentration of example compound by the following equation:
% Response=100*(RFU(example compound)−RFU(control)/(RFU(DMSO)−RFU(control)
Control=full inhibition by the peptide antagonist Lys-(Des-Arg-Leu)-Bradykinin at 20 μM
The response values were plotted against the logarithm of the compound concentrations. The compounds were tested in triplicates per plate and mean values were plotted in Excel XLfit to determine IC50 values, percentage of maximal inhibition and the Hill slopes.
(Calcium assays in cells follow changes in intracellular calcium, usually with a dye or a luminescent sensor.)

[1] abbreviates: presence of 0.1% BSA in assay buffer, read-out: hB1 IC50.
Where [2] appears, read: absence of 0.1% BSA in assay buffer, read-out: hB1 free IC50.

Structures are written as SMILES. Read-outs that look alike come from different tables or passages of the source.

The term IC50 denotes the concentration that gives 50% inhibition. For `CCOc1ccc(-c2cc(C)c(NC(=O)C3CC3c3cccc(C)c3)cc2-c2nnn[nH]2)cn1` (racemic) [Example 63, N-[4-(6-Ethoxypyridin-3-yl)-2-methyl-5-(1H-tetrazol-5-yl)phenyl]-2-(3-methylphenyl)cyclo-propanecarboxamide], the IC50 under setting [1] was determined as 24 nM.
On the same count and under the same terms, in the case of `CCOc1ccc(-c2cc(C)c(NC(=O)C3CC3C3CCCCC3)cc2-c2nnn[nH]2)cn1` (racemic) [Example 65, 2-Cyclohexyl-N-[4-(6-ethoxypyridin-3-yl)-2-methyl-5-(1H-tetrazol-5-yl)phenyl]cyclopropane-carboxamide] it was 247 nM; in that of `COc1ccc(-c2cc(C)c(NC(=O)C3CC3c3ccc(Cl)cc3)cc2-c2nnn[nH]2)cc1OC` (racemic) [Example 66, 2-(4-Chlorophenyl)-N-[3′,4′-dimethoxy-5-methyl-2-(1H-tetrazol-5-yl)biphenyl-4-yl]cyclopro-panecarboxamide], 283 nM; in that of `COc1ccc(-c2cc(C)c(NC(=O)C3CC3C3CCCCC3)cc2-c2nnn[nH]2)cc1OC` (racemic) [Example 67, 2-Cyclohexyl-N-[3′,4′ dimethoxy-5-methyl-2-(1H-tetrazol-5-yl)biphenyl-4-yl]cyclopro-panecarboxamide], 430 nM.
On to `COc1cncc(-c2cc(C)c(NC(=O)C3CC3c3cccc(C)c3)cc2-c2nnn[nH]2)c1` (racemic) [Example 68, N-[4-(5-Methoxypyridin-3-yl)-2-methyl-5-(1H-tetrazol-5-yl)phenyl]-2-(3-methylphenyl)cyclo-propanecarboxamide], for which the IC50 under setting [1] came out at 336 nM.
Still for that read-out and setting: in the case of `COc1cncc(-c2cc(C)c(NC(=O)C3CC3C3CCCCC3)cc2-c2nnn[nH]2)c1` (racemic) [Example 69, 2-Cyclohexyl-N-[4-(5-methoxypyridin-3-yl)-2-methyl-5-(1H-tetrazol-5-yl)phenyl]cyclopropane-carboxamide] it was 447 nM.
Turning to `Cc1cccc(C2CC2C(=O)Nc2cc(-c3nnn[nH]3)c(-c3ccc(C(F)(F)F)nc3)cc2C)c1` (racemic) [Example 70, 2-(3-Methylphenyl)-N-{2-methyl-5-(1H-tetrazol-5-yl)-4-[6-(trifluoromethyl)pyridin-3-yl]phenyl}cyclopro-panecarboxamide], the IC50 by setting is: under setting [2], 157 nM; under setting [1], 86 nM.
The matching figures for `Cc1cc(-c2ccc(C(F)(F)F)nc2)c(-c2nnn[nH]2)cc1NC(=O)C1CC1C1CCCCC1` (racemic) [Example 71, 2-Cyclohexyl-N-{2-methyl-5-(1H-tetrazol-5-yl)-4-[6-(trifluoromethyl)pyridin-3-yl]phenyl}cyclopro-panecarboxamide]: 308 nM and 263 nM.
In the case of `CCOc1ccc(-c2cc(C)c(NC(=O)C3CC3c3cccc(C)c3)cc2-c2nnn[nH]2)cc1OC` (racemic) [Example 72, N-[4′-Ethoxy-3′-methoxy-5-methyl-2-(1H-tetrazol-5-yl)biphenyl-4-yl]-2-(3-methylphenyl)cyclopro-panecarboxamide], the IC50 under setting [1] came to 38 nM.
The same measure, in the same setting: in the case of `CCOc1ccc(-c2cc(C)c(NC(=O)C3CC3C3CCCCC3)cc2-c2nnn[nH]2)cc1OC` (racemic) [Example 73, 2-Cyclohexyl-N-[4′-ethoxy-3′-methoxy-5-methyl-2-(1H-tetrazol-5-yl)biphenyl-4-yl]cyclopro-panecarboxamide] it was 226 nM; in that of `COc1ccc(-c2cc(C)c(NC(=O)C3CC3C3CCCCC3)cc2-c2nnn[nH]2)cc1C` (racemic) [Example 74, 2-Cyclohexyl-N-[4′-methoxy-3′,5-dimethyl-2-(1H-tetrazol-5-yl)biphenyl-4-yl]cyclopro-panecarboxamide], 299 nM.
Regarding `Cc1cccc(C2CC2C(=O)Nc2ccc(-c3cc4ccccc4s3)c(-c3nnn[nH]3)c2)c1` (racemic) [Example 76, N-[4-(1-Benzothiophen-2-yl)-3-(1H-tetrazol-5-yl)phenyl]-2-(3-methylphenyl)cyclopro-panecarboxamide], under setting [2], the concentration for half-maximal inhibition (IC50) was determined as 249 nM.
`CCOc1ccc(-c2ccc(NC(=O)C3CC3c3cccc(C)c3)cc2-c2nnn[nH]2)cc1OC` (racemic) [Example 77, N-[4′-ethoxy-3′-methoxy-2-(1H-tetrazol-5-yl)biphenyl-4-yl]-2-(3-methylphenyl)cyclopro-panecarboxamide]: the 50% inhibitory concentration (IC50) under setting [1] amounted to 12 nM.
For the molecule `O=C(Nc1ccc(-c2ccc(C(F)(F)F)nc2)c(-c2nnn[nH]2)c1)C1CC1c1ccc(Cl)cc1` (racemic) [Example 79, 2-(4-chlorophenyl)-N-{3-(1H-tetrazol-5-yl)-4-[6-(trifluoro-methyl)pyridin-3-yl]phenyl}cyclopropane-carboxamide], the IC50 was 71 nM under setting [2] and 6460 nM under setting [1].
The matching figures for `Cn1cc(-c2ccc(NC(=O)C3CC3c3ccc(Cl)cc3)cc2-c2nnn[nH]2)cn1` (racemic) [Example 80, 2-(4-chlorophenyl)-N-[4-(1-methyl-1H-pyrazol-4-yl)-3-(1H-tetrazol-5-yl)phenyl]cyclopropane-carboxamide]: 1310 nM and 12400 nM.
For `CCOc1ccc(-c2ccc(NC(=O)C3CC3c3cnn(C)c3)cc2-c2nnn[nH]2)cn1` (racemic) [Example 81, N-[4-(6-ethoxypyridin-3-yl)-3-(1H-tetrazol-5-yl)phenyl]-2-(1-methyl-1H-pyrazol-4-yl)cyclopro-panecarboxamide] the same measures were 2500 nM and 4070 nM.
For `COCc1ccc(-c2ccc(NC(=O)C3CC3C3CCCCC3)cc2-c2nnn[nH]2)cc1` (racemic) [Example 82, 2-cyclohexyl-N-[4′-(methoxymethyl)-2-(1H-tetrazol-5-yl)biphenyl-4-yl]cyclopropanecarbox-amide], the concentration for half-maximal inhibition (IC50) under setting [1] is 2550 nM.
The same measure, in the same setting: under `COc1ccc(-c2ccc(NC(=O)C3CC3C3CCCCC3)cc2-c2nnn[nH]2)cc1C` (single isomer, unassigned) [Example 35, 2-Cyclohexyl-N-[4′-methoxy-3′-methyl-2-(1H-tetrazol-5-yl)biphenyl-4-yl]cyclopropanecarbox-amide] stands 378 nM; under `CCOc1ccc(-c2cc(O)c(NC(=O)C3CC3c3ccc(Cl)cc3)cc2-c2nnn[nH]2)cn1` (single isomer, unassigned) [Example 49, 2-(4-chlorophenyl)-N-[4-(6-ethoxypyridin-3-yl)-2-hydroxy-5-(1H-tetrazol-5-yl)phenyl]cyclopropane-carboxamide], 1580 nM; under `CCOc1ccc(-c2cc(O)c(NC(=O)C3CC3c3ccc(Cl)cc3)cc2-c2nnn[nH]2)cn1` (single isomer, unassigned) [Example 50, 2-(4-chlorophenyl)-N-[4-(6-ethoxypyridin-3-yl)-2-hydroxy-5-(1H-tetrazol-5-yl)phenyl]cyclopropane-carboxamide], 24 nM.
As to `CC(C)(C)c1cn(-c2ccc(NC(=O)C3CC3c3ccc(Cl)cc3)cc2-c2nnn[nH]2)cn1` (single isomer, unassigned) [Example 84, N-[4-(4-tert-butyl-1H-imidazol-1-yl)-3-(1H-tetrazol-5-yl)phenyl]-2-(4-chlorophenyl)cyclopropanecarboxamide], under setting [2], the IC50 came to 4 nM.
Still for that read-out and setting: in the case of `CC(C)(C)c1cn(-c2ccc(NC(=O)C3CC3c3ccc(Cl)cc3)cc2-c2nnn[nH]2)cn1` (single isomer, unassigned) [Example 85, N-[4-(4-tert-butyl-1H-imidazol-1-yl)-3-(1H-tetrazol-5-yl)phenyl]-2-(4-chlorophenyl)cyclopropanecarboxamide] it was 147 nM.
